PMC7649969, “Pyrazolyl-pyrimidones inhibit the function of human solute carrier protein SLC11A2 (hDMT1) by metal chelation” (RSC Medicinal Chemistry, 2020)

Molecular target: T1, hDMT1 (Homo sapiens, UniProt P49281)
T1 sequence (P49281 1-568): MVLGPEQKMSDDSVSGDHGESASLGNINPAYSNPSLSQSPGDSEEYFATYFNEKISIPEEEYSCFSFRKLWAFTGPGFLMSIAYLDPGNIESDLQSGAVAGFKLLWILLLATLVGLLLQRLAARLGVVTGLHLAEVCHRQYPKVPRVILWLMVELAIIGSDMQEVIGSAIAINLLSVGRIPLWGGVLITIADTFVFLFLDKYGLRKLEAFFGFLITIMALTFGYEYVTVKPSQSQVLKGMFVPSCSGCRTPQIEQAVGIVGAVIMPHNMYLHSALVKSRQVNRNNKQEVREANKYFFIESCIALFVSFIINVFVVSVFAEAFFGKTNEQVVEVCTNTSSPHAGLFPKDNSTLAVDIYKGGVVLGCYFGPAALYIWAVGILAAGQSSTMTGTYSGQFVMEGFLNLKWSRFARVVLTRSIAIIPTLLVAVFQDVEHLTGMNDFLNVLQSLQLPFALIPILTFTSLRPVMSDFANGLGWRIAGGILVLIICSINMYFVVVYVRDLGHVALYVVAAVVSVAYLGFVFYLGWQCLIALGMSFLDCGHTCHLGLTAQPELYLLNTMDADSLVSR
Assay: 55Fe2+ uptake in Xenopus laevis oocytes overexpressing hDMT1
Format: cell-based
Design: DsRED; expressed in transfected cells; host or cells: HEK293T (ATCC CRL-3216), transient transfection with Lipofectamine 2000
Conditions: compound 10 μM, 55Fe2+ 20 μM
Description: Fig. 3 Characterization of Fe^2+ transport inhibition by 1 and 13 in X. laevis oocytes (collected from frogs under license number BE60/18 conceded by the Veterinärdienst des Kantons BE, Sekretariat Tierversuche). (a) Upper panel: Average ^55Fe^2+-uptake (20 μM) by hDMT1-expressing and non-injected oocytes in the absence and the presence of the indicated compounds (10 μM). Data was normalized to ^55Fe^2+-uptake (pmol min^–1) in the absence of compounds represented as mean ± SD (16–29 oocytes). Lower panel: Net uptake of ^55Fe^2+ (20 μM) by hDMT1 in the absence and the presence of the indicated compounds (10 μM). For each batch of oocytes, uptake values were corrected for unspecific iron uptake in non-injected oocytes. Data were normalized to the mean iron uptake by hDMT1 WT (pmol min^–1) and represented as mean ± SD (14–34 oocytes). (b and c) Electrophysiology. […] For each trace, recorded currents were corrected for the background currents observed without substrate. (b) Representative traces recorded with hDMT1 injected oocytes (upper panel) and non-injected oocytes (lower panel). […] Statistical differences were assessed using T-test or Mann–Whitney U test (Fe^2+-uptake by hDMT1 WT vs. non-injected oocytes or vs. compound); p > 0.05 = ns; p < 0.001 = ***. […]

| SMILES | inhibition of radioactive iron uptake in oocytes | inhibition at 10 µM (read-out: inhibition of radioactive iron uptake in oocytes) [%] |
| --- | --- | --- |
| N=C(N)SCc1cccc2c1oc1c(CSC(=N)N)cccc12 [Compound 1, reference compound] | totally inhibited | – |
| Cc1cc(=O)[nH]c(-n2nc3c(c2C)CCCC3)n1 [Compound 13] | – | 50 |
